Measurements from PubChem BioAssay (NCI).
Values joined by “and” are separate entries in the source; they are usually repeats but may differ in a detail not shown here. Equal values may be shown once.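 Values below derive from 48-hour exposures of cells grown in 96-well plates, with endpoints linearly interpolated between the two concentrations bracketing the appropriate inhibition level. Here, GI50 denotes the concentration required for 50% inhibition of growth. TGI denotes the concentration required for complete inhibition of growth.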

Legend:
Experiment in all cases: DTP human tumour cell line panel, 48 h
786-0 renal = test system: 786-0 renal
A498 renal = test system: A498 renal
A549 NSCLC = test system: A549 NSCLC
ACHN renal = test system: ACHN renal
CCRF-CEM leukemia = test system: CCRF-CEM leukemia
DU-145 prostate = test system: DU-145 prostate
EKVX NSCLC = test system: EKVX NSCLC
HCC-2998 colon = test system: HCC-2998 colon
HCT-116 colon = test system: HCT-116 colon
HCT-15 colon = test system: HCT-15 colon
HL-60(TB) leukemia = test system: HL-60(TB) leukemia
HOP-62 NSCLC = test system: HOP-62 NSCLC
HOP-92 NSCLC = test system: HOP-92 NSCLC
HS 578T breast = test system: HS 578T breast
HT29 colon = test system: HT29 colon
IGROV1 ovarian = test system: IGROV1 ovarian
K-562 leukemia = test system: K-562 leukemia
LOX IMVI melanoma = test system: LOX IMVI melanoma
MALME-3M melanoma = test system: MALME-3M melanoma
MCF7 breast = test system: MCF7 breast
MDA-MB-435 = test system: MDA-MB-435
MDA-N = test system: MDA-N
MOLT-4 leukemia = test system: MOLT-4 leukemia
NCI-H226 lung = test system: NCI-H226 lung
NCI-H23 lung = test system: NCI-H23 lung
NCI-H460 lung = test system: NCI-H460 lung
NCI-H522 lung = test system: NCI-H522 lung
NCI/ADR-RES ovarian = test system: NCI/ADR-RES ovarian
OVCAR-3 ovarian = test system: OVCAR-3 ovarian
OVCAR-4 ovarian = test system: OVCAR-4 ovarian
OVCAR-5 ovarian = test system: OVCAR-5 ovarian
OVCAR-8 ovarian = test system: OVCAR-8 ovarian
PC-3 prostate = test system: PC-3 prostate
RPMI-8226 leukemia = test system: RPMI-8226 leukemia
SF-268 CNS = test system: SF-268 CNS
SF-295 CNS = test system: SF-295 CNS
SF-539 CNS = test system: SF-539 CNS
SK-MEL-28 melanoma = test system: SK-MEL-28 melanoma
SK-MEL-5 melanoma = test system: SK-MEL-5 melanoma
SN12C renal = test system: SN12C renal
SNB-19 CNS = test system: SNB-19 CNS
SNB-75 CNS = test system: SNB-75 CNS
SR leukemia = test system: SR leukemia
SW-620 colon = test system: SW-620 colon
TK-10 renal = test system: TK-10 renal
U251 CNS = test system: U251 CNS
UACC-257 melanoma = test system: UACC-257 melanoma
CAKI-1 renal = test system: CAKI-1 renal
COLO 205 colon = test system: COLO 205 colon
KM12 colon = test system: KM12 colon
M14 melanoma = test system: M14 melanoma
MDA-MB-231 breast = test system: MDA-MB-231 breast
RXF 393 renal = test system: RXF 393 renal
SK-MEL-2 melanoma = test system: SK-MEL-2 melanoma
SK-OV-3 ovarian = test system: SK-OV-3 ovarian
UACC-62 melanoma = test system: UACC-62 melanoma
UO-31 renal = test system: UO-31 renal
T-47D breast = test system: T-47D breast

Question: Which results are given for `O=[N+]([O-])c1cccnc1NCC1(CO)CCCC1`?
Answer: TGI (786-0 renal): 80.1 µM; TGI (A498 renal): > 100 µM; TGI (A549 NSCLC): > 100 µM; TGI (ACHN renal): 70.1 µM; TGI (CCRF-CEM leukemia): > 100 µM; TGI (DU-145 prostate): > 100 µM; TGI (EKVX NSCLC): 76.9 µM; TGI (HCC-2998 colon): 32.8 µM; TGI (HCT-116 colon): 67 µM; TGI (HCT-15 colon): 37.7 µM; TGI (HL-60(TB) leukemia): 50.3 µM; TGI (HOP-62 NSCLC): > 100 µM; TGI (HOP-92 NSCLC): 54.1 µM; TGI (HS 578T breast): 54 µM; TGI (HT29 colon): 34.8 µM; TGI (IGROV1 ovarian): 38.7 µM; TGI (K-562 leukemia): 53.2 µM; TGI (LOX IMVI melanoma): 30.3 µM; TGI (MALME-3M melanoma): 37.5 µM; TGI (MCF7 breast): > 100 µM; TGI (MDA-MB-435): 44.1 µM; TGI (MDA-N): 42.3 µM; TGI (MOLT-4 leukemia): 40.5 µM; TGI (NCI-H226 lung): 68.4 µM; TGI (NCI-H23 lung): > 100 µM; TGI (NCI-H460 lung): 47.6 µM; TGI (NCI-H522 lung): 45.9 µM; TGI (NCI/ADR-RES ovarian): 49 µM; TGI (OVCAR-3 ovarian): 46 µM; TGI (OVCAR-4 ovarian): > 100 µM; TGI (OVCAR-5 ovarian): 87.1 µM; TGI (OVCAR-8 ovarian): 50.7 µM; TGI (PC-3 prostate): 37.8 µM; TGI (RPMI-8226 leukemia): 59.1 µM; TGI (SF-268 CNS): 70.7 µM; TGI (SF-295 CNS): 56.2 µM; TGI (SF-539 CNS): 49.7 µM; TGI (SK-MEL-28 melanoma): 51.3 µM; TGI (SK-MEL-5 melanoma): 30.9 µM; TGI (SN12C renal): 53 µM; TGI (SNB-19 CNS): > 100 µM; TGI (SNB-75 CNS): 34.9 µM; TGI (SR leukemia): 64.2 µM; TGI (SW-620 colon): 54.4 µM; TGI (TK-10 renal): 79.3 µM; TGI (U251 CNS): 31.2 µM; TGI (UACC-257 melanoma): 44.3 µM

Question: Which results are given for `C[n+]1c(-c2ccccc2)cc2/c(=C\c3ccccc3)c3ccccc3n21`?
Answer: TGI (786-0 renal): 2.77 µM; TGI (A498 renal): 23.1 µM; TGI (A549 NSCLC): > 36.3 µM; TGI (ACHN renal): 11.8 µM; TGI (CAKI-1 renal): 11.4 µM; TGI (COLO 205 colon): 1.8 µM; TGI (DU-145 prostate): 10.6 µM; TGI (EKVX NSCLC): 9.64 µM; TGI (HCC-2998 colon): 14.2 µM; TGI (HCT-116 colon): 4.91 µM; TGI (HCT-15 colon): 11.5 µM; TGI (HL-60(TB) leukemia): 0.302 µM; TGI (HOP-62 NSCLC): 6.9 µM; TGI (HOP-92 NSCLC): 4.93 µM; TGI (HS 578T breast): 0.576 µM; TGI (HT29 colon): 3.22 µM; TGI (IGROV1 ovarian): 2.64 µM; TGI (K-562 leukemia): > 100 µM; TGI (KM12 colon): 2.18 µM; TGI (LOX IMVI melanoma): 2.88 µM; TGI (M14 melanoma): 4.19 µM; TGI (MALME-3M melanoma): 2.93 µM; TGI (MCF7 breast): > 32.2 µM; TGI (MDA-MB-231 breast): 3.55 µM; TGI (MDA-MB-435): 2.45 µM; TGI (MDA-N): 3.42 µM; TGI (MOLT-4 leukemia): 7.78 µM; TGI (NCI-H226 lung): 2.01 µM; TGI (NCI-H23 lung): 7.2 µM; TGI (NCI-H522 lung): 2.01 µM; TGI (NCI/ADR-RES ovarian): 71.1 µM; TGI (OVCAR-3 ovarian): 3.04 µM; TGI (OVCAR-4 ovarian): 17.2 µM; TGI (OVCAR-5 ovarian): 13.4 µM; TGI (OVCAR-8 ovarian): 4.19 µM; TGI (PC-3 prostate): 3.69 µM; TGI (RPMI-8226 leukemia): > 100 µM; TGI (RXF 393 renal): 4.07 µM; TGI (SF-268 CNS): 2.92 µM; TGI (SF-295 CNS): 76 µM; TGI (SK-MEL-2 melanoma): 2.26 µM; TGI (SK-MEL-28 melanoma): 2.73 µM; TGI (SK-OV-3 ovarian): 17.4 µM; TGI (SN12C renal): 3.32 µM; TGI (SNB-19 CNS): 24 µM; TGI (SNB-75 CNS): 2.05 µM; TGI (SR leukemia): > 21.4 µM; TGI (SW-620 colon): 3.47 µM; TGI (TK-10 renal): 14.2 µM; TGI (U251 CNS): 1.67 µM; TGI (UACC-257 melanoma): 3.98 µM; TGI (UACC-62 melanoma): 3.24 µM; TGI (UO-31 renal): 7.81 µM

Question: With `CC(=O)OCC1OC(Sc2nc(-c3ccc(Cl)cc3)c(C#N)c(=O)n2C2OC(COC(C)=O)C(OC(C)=O)C(OC(C)=O)C2OC(C)=O)C(OC(C)=O)C(OC(C)=O)C1OC(C)=O` (centres undefined) as the molecule, how does the TGI (A549 NSCLC) read?
Answer: > 100 µM

Question: What about the TGI (COLO 205 colon) of the same molecule?
Answer: > 100 µM and 19.3 µM

Question: And the TGI (DU-145 prostate)?
Answer: > 100 µM and 25.3 µM

Question: What about the TGI (EKVX NSCLC) of the same molecule?
Answer: > 100 µM

Question: What about the TGI (HCT-116 colon) of the same molecule?
Answer: > 100 µM

Question: What about the TGI (HCT-15 colon) of the same molecule?
Answer: > 100 µM and 13.6 µM

Question: And the TGI (HL-60(TB) leukemia)?
Answer: 8.82 µM

Question: And the TGI (HOP-62 NSCLC)?
Answer: > 100 µM and 18.5 µM

Question: And the GI50 (HOP-92 NSCLC)?
Answer: 2.13 µM

Question: What about the TGI (HOP-92 NSCLC) of the same molecule?
Answer: 9.15 µM

Question: What about the TGI (HS 578T breast) of the same molecule?
Answer: > 100 µM and 34.3 µM

Question: And the TGI (IGROV1 ovarian)?
Answer: > 100 µM and 33.5 µM

Question: What about the GI50 (K-562 leukemia) of the same molecule?
Answer: 36.6 µM

Question: What about the TGI (K-562 leukemia) of the same molecule?
Answer: > 100 µM

Question: And the TGI (KM12 colon)?
Answer: > 100 µM and 31 µM

Question: What about the GI50 (LOX IMVI melanoma) of the same molecule?
Answer: 26.9 µM and 8.49 µM

Question: And the TGI (LOX IMVI melanoma)?
Answer: > 100 µM

Question: What about the TGI (M14 melanoma) of the same molecule?
Answer: > 100 µM

Question: What about the TGI (MCF7 breast) of the same molecule?
Answer: > 100 µM and 15.4 µM

Question: And the TGI (MDA-MB-435)?
Answer: > 100 µM and 19.7 µM

Question: What about the TGI (MDA-N) of the same molecule?
Answer: > 100 µM and 13.2 µM

Question: What about the TGI (MOLT-4 leukemia) of the same molecule?
Answer: > 100 µM

Question: And the TGI (NCI-H226 lung)?
Answer: > 100 µM and 12.1 µM

Question: And the TGI (NCI-H23 lung)?
Answer: > 100 µM and 20 µM

Question: And the GI50 (NCI/ADR-RES ovarian)?
Answer: > 100 µM and 10.2 µM

Question: What about the TGI (NCI/ADR-RES ovarian) of the same molecule?
Answer: > 100 µM

Question: And the TGI (OVCAR-3 ovarian)?
Answer: > 100 µM and 24.8 µM

Question: What about the TGI (OVCAR-4 ovarian) of the same molecule?
Answer: 12.1 µM

Question: And the TGI (OVCAR-5 ovarian)?
Answer: > 100 µM and 21.9 µM

Question: What about the GI50 (OVCAR-8 ovarian) of the same molecule?
Answer: > 100 µM and 17.2 µM

Question: And the TGI (OVCAR-8 ovarian)?
Answer: > 100 µM

Question: And the TGI (PC-3 prostate)?
Answer: > 100 µM and 24.4 µM

Question: And the TGI (RPMI-8226 leukemia)?
Answer: > 100 µM

Question: And the GI50 (SK-MEL-2 melanoma)?
Answer: > 100 µM and 17.4 µM

Question: What about the TGI (SK-MEL-2 melanoma) of the same molecule?
Answer: > 100 µM

Question: What about the TGI (SK-MEL-5 melanoma) of the same molecule?
Answer: > 100 µM and 12.8 µM

Question: And the TGI (SK-OV-3 ovarian)?
Answer: > 100 µM and 11.2 µM

Question: What about the GI50 (SNB-19 CNS) of the same molecule?
Answer: > 100 µM and 10.7 µM

Question: And the TGI (SNB-19 CNS)?
Answer: > 100 µM and 23.1 µM

Question: What about the TGI (SR leukemia) of the same molecule?
Answer: 99.8 µM

Question: What about the TGI (SW-620 colon) of the same molecule?
Answer: > 100 µM

Question: What about the GI50 (T-47D breast) of the same molecule?
Answer: 89.8 µM and 17.7 µM

Question: And the TGI (T-47D breast)?
Answer: > 100 µM

Question: And the GI50 (TK-10 renal)?
Answer: > 100 µM and 20.2 µM

Question: What about the TGI (TK-10 renal) of the same molecule?
Answer: > 100 µM and 47.8 µM

Question: What about the TGI (U251 CNS) of the same molecule?
Answer: > 100 µM

Question: What about the TGI (UACC-257 melanoma) of the same molecule?
Answer: > 100 µM and 10.8 µM

Question: What about the GI50 (UO-31 renal) of the same molecule?
Answer: 27.7 µM and 55.9 µM

Question: What about the TGI (UO-31 renal) of the same molecule?
Answer: > 100 µM
